Test results from patent publication US9963467B2, “Boronic acid derivatives and therapeutic uses thereof” (Rempex Pharmaceuticals, Inc., priority 2014, dated 2018).

Columns and labels:
[1] = Serum stability of prodrugs, human serum; type: in vitro ADME; conditions: human serum; prodrug; theoretical initial conc. 20 ug/mL
Description: (§1) Prodrug strategy is one of the ways to achieve or increase oral bioavailability for therapeutic drugs. […] After a prodrug molecule is absorbed into systemic circulation, it should be hydrolyzed in the blood in order to release the active form. Hydrolysis of several prodrugs by rat and human serum were evaluated.
(§2) For all stability experiments the test compounds were treated with rat or human serum in Eppendorf tubes. Typically, 992 μl of serum was prewarmed at 37 degrees for 2 minutes and then 8 μl of a compound (at 5 mg/ml, 125×) was added to it to get a final concentration of […] and immediately mixed. Alternatively, serum stability might be tested at 1 mg/ml. […] After vortexing for 30 seconds, the tube was centrifuged in a microcentrifuge for 10 minutes at 15K rpm. Next, 100 μl of the supernatant was combined with 600 μl of water and injected on LC-MS using 0.1% formic acid in water for mobile phase A and 0.1% formic acid in methanol for mobile phase B on an ACE 5 C18 2.1×100 mm column with a 10 μL injection. The flow rate and gradient were adjusted as needed to give the desired resolution and run time. The pH of the mobile phase was adjusted if needed to improve the chromatography.
(§3) The time course of both the disappearance of a prodrug and the appearance of the active form of that prodrug is presented in Table 6 and Table 7. The active metabolites for all of the listed prodrugs are corresponding parent drugs

[2] = Serum stability of prodrugs, rat serum; type: in vitro ADME; conditions: theoretical initial conc. 20 ug/mL; for Measured Initial Conc. in Serum: 37 degrees; for Conc. at t = 1 hr / Conc. at t = 3 hr: prodrug
Description: as §1, §2, §3

[3] = Serum stability of prodrugs, human serum; type: in vitro ADME; conditions: theoretical initial conc. 20 ug/mL; for Measured Initial Conc. in Serum: 37 degrees; for Conc. at t = 1 hr: prodrug
ec302 (TEM-10) [4] = assay: Aztreonam potentiation (MPC@4), ec302; type: cell-based; conditions: BLI with aztreonam at 4 μg/mL
KP1005 (CTX-M-14) = assay: Tigemonam potentiation (MPC@4), KP1005; type: cell-based; conditions: BLI with tigemonam at 4 μg/mL
KP1009 (CTX-M-15) = assay: Tigemonam potentiation (MPC@4), KP1009; type: cell-based; conditions: BLI with tigemonam at 4 μg/mL
ec308 (SHV-5) = assay: Tigemonam potentiation (MPC@4), ec308; type: cell-based
KP1010 (SHV-12) = assay: Tigemonam potentiation (MPC@4), KP1010; type: cell-based
ec302 (TEM-10) [5] = assay: Tigemonam potentiation (MPC@4), ec302; type: cell-based
ECL1002 = assay: Tigemonam potentiation (MPC@4), ECL1002; type: cell-based; conditions: BLI with tigemonam at 4 μg/mL
EC1010 (CMY-6) = assay: Tigemonam potentiation (MPC@4), EC1010; type: cell-based; conditions: BLI with tigemonam at 4 μg/mL
CTX-M-14 = CTX-M-14 (Escherichia coli, UniProt Q9L5C7); assay: Ki, nitrocefin cleavage by purified enzyme, CTX-M-14; type: biochemical; conditions: nitrocefin reporter substrate; read-out: Ki (CTX-M-14, NCF)
CTX-M-14, sequence (Q9L5C7 29-291): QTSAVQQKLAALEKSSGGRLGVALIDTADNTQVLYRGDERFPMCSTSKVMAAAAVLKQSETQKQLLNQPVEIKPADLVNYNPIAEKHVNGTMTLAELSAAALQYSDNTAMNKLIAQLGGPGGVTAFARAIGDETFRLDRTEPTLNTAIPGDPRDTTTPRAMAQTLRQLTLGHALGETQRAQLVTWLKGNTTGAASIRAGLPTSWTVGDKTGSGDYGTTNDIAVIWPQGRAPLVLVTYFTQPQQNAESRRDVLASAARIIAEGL
Description: (§4) Purified enzymes were mixed with various concentrations of inhibitors in reaction buffer and incubated for 10 min at room temperature. Nitrocefin was added and substrate cleavage profiles were recorded at 490 nm every 10 sec for 10 min.

SHV-12 = SHV-12 (Klebsiella pneumoniae, UniProt P0AD64, E235K/G234S/L31Q); assay: Ki, nitrocefin cleavage by purified enzyme, SHV-12; type: biochemical; conditions: nitrocefin reporter substrate; read-out: Ki (SHV-12, NCF)
SHV-12, sequence (P0AD64 22-286 L31Q/G234S/E235K): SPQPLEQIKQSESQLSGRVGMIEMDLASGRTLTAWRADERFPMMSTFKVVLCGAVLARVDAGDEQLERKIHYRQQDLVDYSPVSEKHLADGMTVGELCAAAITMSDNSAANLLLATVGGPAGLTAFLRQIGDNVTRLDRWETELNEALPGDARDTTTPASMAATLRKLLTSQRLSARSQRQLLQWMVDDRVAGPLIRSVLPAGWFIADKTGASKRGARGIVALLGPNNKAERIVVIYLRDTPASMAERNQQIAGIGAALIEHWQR
Description: as §4

KPC-2 = KPC-2 (Klebsiella pneumoniae, UniProt Q9F663); assay: Ki, nitrocefin cleavage by purified enzyme, KPC-2; type: biochemical; conditions: nitrocefin reporter substrate; read-out: Ki (KPC-2, NCF)
KPC-2, sequence (Q9F663 25-293, looked up, species assumed): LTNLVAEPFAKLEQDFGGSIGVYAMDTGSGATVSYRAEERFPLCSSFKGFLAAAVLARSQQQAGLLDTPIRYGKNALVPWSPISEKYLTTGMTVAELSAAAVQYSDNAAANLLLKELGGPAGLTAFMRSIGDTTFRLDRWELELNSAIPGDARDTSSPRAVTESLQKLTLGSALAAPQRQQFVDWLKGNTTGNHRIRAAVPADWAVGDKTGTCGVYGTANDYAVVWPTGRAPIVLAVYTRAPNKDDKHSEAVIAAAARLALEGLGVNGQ
Description: as §4

P99 = P99 (Enterobacter cloacae, UniProt P05364); assay: Ki, nitrocefin cleavage by purified enzyme, P99; type: biochemical; conditions: nitrocefin reporter substrate; read-out: Ki (P99, NCF)
P99, sequence (P05364 21-381): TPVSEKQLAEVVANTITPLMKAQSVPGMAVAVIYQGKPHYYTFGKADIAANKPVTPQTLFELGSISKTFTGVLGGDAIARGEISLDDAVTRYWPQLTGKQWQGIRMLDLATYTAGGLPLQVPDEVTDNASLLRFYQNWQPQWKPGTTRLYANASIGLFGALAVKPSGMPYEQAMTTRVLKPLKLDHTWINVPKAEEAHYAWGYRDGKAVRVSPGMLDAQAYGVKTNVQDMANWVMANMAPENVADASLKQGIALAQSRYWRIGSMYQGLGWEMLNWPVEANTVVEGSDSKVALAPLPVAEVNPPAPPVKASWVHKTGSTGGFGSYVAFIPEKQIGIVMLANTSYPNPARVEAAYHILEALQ
Description: as §4

Pa AmpC = Pa AmpC (Pseudomonas aeruginosa, UniProt P24735); assay: Ki, nitrocefin cleavage by purified enzyme, Pa AmpC; type: biochemical; conditions: nitrocefin reporter substrate; read-out: Ki (Pa AmpC, NCF)
Pa AmpC, sequence (P24735 27-397): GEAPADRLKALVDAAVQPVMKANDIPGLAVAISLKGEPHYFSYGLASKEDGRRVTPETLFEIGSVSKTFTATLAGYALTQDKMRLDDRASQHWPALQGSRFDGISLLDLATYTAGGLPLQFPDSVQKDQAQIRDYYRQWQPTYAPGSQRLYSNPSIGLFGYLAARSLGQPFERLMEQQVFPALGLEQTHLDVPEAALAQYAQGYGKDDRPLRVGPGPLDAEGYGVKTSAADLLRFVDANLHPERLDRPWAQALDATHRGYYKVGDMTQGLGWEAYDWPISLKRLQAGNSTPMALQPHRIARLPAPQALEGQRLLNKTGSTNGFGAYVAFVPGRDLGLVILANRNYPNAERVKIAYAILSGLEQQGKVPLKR
Description: Ki values of inhibition of purified class A, C and D enzymes were determined spectrophotometrically using nitrocefin as reporter substrate. Purified enzymes were mixed with various concentrations of inhibitors in reaction buffer and incubated for 10 min at room temperature. Nitrocefin was added and substrate cleavage profiles were recorded at 490 nm every 10 sec for 10 min. These experiments confirmed that the described compounds are inhibitors with a broad-spectrum of activity towards various β-lactamases.

OXA-48 = OXA-48 (Klebsiella pneumoniae, UniProt Q6XEC0); assay: Ki, nitrocefin cleavage by purified enzyme, OXA-48; type: biochemical; conditions: nitrocefin reporter substrate; read-out: Ki (OXA-48, NCF)
OXA-48, sequence (Q6XEC0 23-265, looked up, species assumed): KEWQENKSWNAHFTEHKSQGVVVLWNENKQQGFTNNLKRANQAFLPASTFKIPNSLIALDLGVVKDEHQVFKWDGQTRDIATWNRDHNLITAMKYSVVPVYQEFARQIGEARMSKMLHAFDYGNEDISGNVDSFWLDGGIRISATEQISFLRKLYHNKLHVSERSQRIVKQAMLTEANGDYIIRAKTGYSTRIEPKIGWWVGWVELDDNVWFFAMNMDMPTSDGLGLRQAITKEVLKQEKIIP
Description: as §4

[6] = Monomer content of pH adjusted aqueous solutions (LC-UV); type: physicochemical; conditions: pH adjusted to 7.6 to 8, LC-UV
Description: Boronic acid containing compounds are known to undergo oligomerization. The presence of oligomers can greatly complicate drug development, as they represent new chemical species whose content must be controlled and qualified by testing in toxoicology studies. The monomer content of compounds was evaluated by adjusting aqueous solutions to physiological pH at various concentrations. The monomer content of pH adjusted solutions was measured using LC-UV. Test compounds were weighed out into a 1.5 mL Eppendorf tube. A solution of water was prepared in 1.00 mg/mL, 10.0 mg/mL or 100 mg/mL concentrations of the compound based on active fraction. A volume 20 uL was subtracted to allow room for addition of acid or base to adjust pH. The solution pH was measured. The pH was then adjusted through addition of acid or base as necessary until the reading was in the 7.6 to 8 range. A final pH measurement was made after ensuring all the compound was in solution. The solution was injected onto LC-UV in 0.1 uL to 5 uL volume within less than half an hour after the time the sample was prepared. Elution was done using 0.1% TFA in water for mobile phase A and 0.085% TFA in methanol for mobile phase B on an Excel ACE 5 Super C18 2.1×100 mm column at 0.6 ml/min flow rate with 9 min gradient, 3.9 minute hold at 90% B and 18 minute run time. The absorption was measured at 220, 254 and 300 nm with a 4 nm bandwidth.

KP1004 (KPC-2) = assay: Biapenem potentiation (MPC@1), KP1004; conditions: BLI with biapenem at 1 μg/mL
KP1086 (OXA-48) = assay: Biapenem potentiation (MPC@1), KP1086; conditions: BLI with biapenem at 1 μg/mL

CCOC(=O)OCOC(=O)c1c(OC)ccc2c1OB(O)[C@@H](NC(=O)CSC)C2 [Compound 41, ethoxycarbonyloxymethyl(3R)-2-hydroxy-7-methoxy-3-[(2-methylsulfanylacetyl)amino]-3,4-dihydro-1,2-benzoxaborinine-8-carboxylate]
Conc. at t = 3 hr [1]: 20.9 µg/mL
Measured Initial Conc. in Serum [2]: 20.6 µg/mL
Conc. at t = 1 hr [2]: 0.40 µg/mL
Conc. at t = 3 hr [2]: 0 µg/mL
Measured Initial Conc. in Serum [3]: 24.4 µg/mL
Conc. at t = 1 hr [3]: 20.80 µg/mL

CSCC(=O)N[C@H]1Cc2ccc(F)c(C(=O)OCOC(=O)C(C)(C)C)c2OB1O [Compound 18, (R)-pivaloyloxymethyl 7-fluoro-2-hydroxy-3-(2-(methylthio)acetamido)-3,4-dihydro-2H-benzo[e][1,2]oxaborinine-8-carboxylate]
Conc. at t = 3 hr [1]: 6.27 µg/mL
Measured Initial Conc. in Serum [2]: 14.6 µg/mL
Conc. at t = 1 hr [2]: 9.39 µg/mL
Conc. at t = 3 hr [2]: 3.29 µg/mL
Measured Initial Conc. in Serum [3]: 16.3 µg/mL
Conc. at t = 1 hr [3]: 11.6 µg/mL

COc1ccc2c(c1C(=O)O)OB(O)[C@@H](NC(=O)CSC)C2 [Compound 12, (R)-2-hydroxy-7-methoxy-3-(2-(methylthio)acetamido)-3,4-dihydro-2H-benzo[e][1,2]oxaborinine-8-carboxylic acid]
AZT MPC4 TEM-10 ec302 (ec302 (TEM-10) [4]): X (MIC of less than 1 ng/mL)
TIG MPC4 CTX-M-14 KP1005 (KP1005 (CTX-M-14)): X (MIC of less than 1 μg/mL)
TIG MPC4 CTX-M-15 KP1009 (KP1009 (CTX-M-15)): X (MIC of less than 1 μg/mL)
TIG MPC4 SHV-5 ec308 (ec308 (SHV-5)): X (key: X: MIC of less than 1 μg/mL; Y: MIC of 1 μg/mL to 10 μg/mL; Z: MIC of greater than 10 μg/mL)
TIG MPC4 SHV-12 KP1010 (KP1010 (SHV-12)): X (key: X: MIC of less than 1 μg/mL; Y: MIC of 1 μg/mL to 10 μg/mL; Z: MIC of greater than 10 μg/mL)
TIG MPC4 TEM-10 ec302 (ec302 (TEM-10) [5]): Y (key: X: MIC of less than 1 ng/mL; Y: MIC of 1 μg/mL to 10 μg/mL; Z: MIC of greater than 10 μg/mL)
TIG MPC4 ECL1002 (ECL1002): X (MIC of less than 1 μg/mL)
TIG MPC4 CMY-6 EC1010 (EC1010 (CMY-6)): X (MIC of less than 1 μg/mL)
Ki (CTX-M-14): < 1 nM
Ki (SHV-12): < 1 nM
Ki (KPC-2): > 10 nM
Ki (P99): > 10 nM
Ki (Pa AmpC): > 10 nM
Ki (OXA-48): < 1 nM
% Monomer in 1 mg/mL salt solution ([6]; 1 mg/mL aqueous salt solution): 98.2%
% Monomer in 10 mg/mL salt solution ([6]; 10 mg/mL aqueous salt solution): 95.5%
% Monomer in 100 mg/mL salt solution ([6]; 100 mg/mL aqueous salt solution): 96.5%
BPM MPC1 KP1004 KPC-2 (KP1004 (KPC-2)): X (MIC of less than 1 μg/mL)
BPM MPC1 OXA-48 KP1086 (KP1086 (OXA-48)): Y (MIC of 1 μg/mL to 10 μg/mL)
